Assay results reported in US9486506B2 (Novo Nordisk A/S, priority 2011, dated 2016).
Numbered stars: 1 amine (or outer) side, 2 acyl side, 3 side chain; on linkers, the order of the positions; unused ones are H or OH. Side chains are listed from the residue outwards. Peptide text beside a SMILES is read from it. * marks the point of attachment. C18 diacid = O=C(O)CCCCCCCCCCCCCCCCC(=O)*; C16 diacid = O=C(O)CCCCCCCCCCCCCCC(=O)*; γGlu = O=C(O)[C@H](CCC(=O)[*:2])N[*:1]; AEEA = NCCOCCOCC(=O)O

Biological target: T1, glucagon receptor (Homo sapiens, UniProt P47871)
T1 construct: expressed in transfected cells
T1 sequence (P47871 26-477): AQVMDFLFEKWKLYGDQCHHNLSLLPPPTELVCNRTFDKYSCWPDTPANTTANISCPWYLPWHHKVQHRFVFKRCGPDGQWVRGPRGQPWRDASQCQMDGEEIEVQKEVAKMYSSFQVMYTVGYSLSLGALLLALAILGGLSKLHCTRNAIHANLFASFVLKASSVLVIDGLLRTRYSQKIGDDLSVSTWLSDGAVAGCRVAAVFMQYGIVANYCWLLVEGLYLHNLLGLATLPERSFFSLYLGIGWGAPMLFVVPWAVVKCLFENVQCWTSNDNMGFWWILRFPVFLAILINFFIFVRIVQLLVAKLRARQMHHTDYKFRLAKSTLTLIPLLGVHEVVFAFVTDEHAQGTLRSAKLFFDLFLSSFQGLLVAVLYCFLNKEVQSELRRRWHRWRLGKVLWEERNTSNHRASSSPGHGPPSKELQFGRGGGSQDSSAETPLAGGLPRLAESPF
Test: Assay (I) Glucagon activity (cAMP biosensor, FLIPR)
Assay type: cell-based

Structure (SMILES) | EC50
CC(C)C[C@H](NC(=O)[C@H](Cc1ccc(O)cc1)NC(=O)[C@H](CCCNC(=N)N)NC(=O)[C@H](CO)NC(=O)[C@@H](NC(=O)[C@H](CC(=O)O)NC(=O)[C@H](CO)NC(=O)[C@@H](NC(=O)[C@H](Cc1ccccc1)NC(=O)[C@@H](NC(=O)CNC(=O)[C@H](CCC(N)=O)NC(=O)[C@H](CO)NC(=O)[C@@H](N)Cc1c[nH]cn1)[C@@H](C)O)[C@@H](C)O)C(C)C)C(=O)N[C@@H](CCC(=O)O)C(=O)N[C@@H](CO)C(=O)N[C@@H](CCCNC(=N)N)C(=O)N[C@@H](CCCNC(=N)N)C(=O)N[C@@H](C)C(=O)N[C@@H](CCC(N)=O)C(=O)N[C@@H](CCC(=O)O)C(=O)N[C@@H](Cc1ccccc1)C(=O)N[C@H](C(=O)N[C@@H](CCCCNC(=O)CC[C@H](NC(=O)CC[C@H](NC(=O)COCCOCCNC(=O)COCCOCCNC(=O)CC[C@H](NC(=O)CCCCCCCCCCCCCCCCC(=O)O)C(=O)O)C(=O)O)C(=O)O)C(=O)N[C@@H](Cc1c[nH]c2ccccc12)C(=O)N[C@@H](CC(C)C)C(=O)N[C@@H](CCC(=O)O)C(=O)N[C@@H](CO)C(=O)N[C@H](C(=O)O)[C@@H](C)O)C(C)C [Example 54, N^ε24-[(4S)-4-carboxy-4-[[(4S)-4-carboxy-4-[[2-[2-[2-[[2-[2-[2-[[(4S)-4-carboxy-4-(17-carboxyheptadecanoylamino)butanoyl]amino]ethoxy]ethoxy]acetyl]amino]ethoxy]ethoxy]acetyl]amino]butanoyl]amino]butanoyl]-[Val10,Arg12,Glu15,Glu21,Lys24,Glu27,Ser28]-Glucagon] (H-HSQGTFTSDVSRYLESRRAQEFVK([γGlu-γGlu-AEEA-AEEA-γGlu-C18 diacid])WLEST-OH) | 1.63 nM
CC(C)C[C@H](NC(=O)[C@H](Cc1ccc(O)cc1)NC(=O)[C@H](CCCNC(=N)N)NC(=O)[C@H](CO)NC(=O)[C@H](Cc1ccc(O)cc1)NC(=O)[C@H](CC(=O)O)NC(=O)[C@H](CO)NC(=O)[C@@H](NC(=O)[C@H](Cc1ccccc1)NC(=O)[C@@H](NC(=O)CNC(=O)[C@H](CCC(N)=O)NC(=O)[C@H](CO)NC(=O)[C@@H](N)Cc1c[nH]cn1)[C@@H](C)O)[C@@H](C)O)C(=O)N[C@@H](CCC(=O)O)C(=O)N[C@@H](CO)C(=O)N[C@@H](CCCNC(=N)N)C(=O)N[C@@H](CCCNC(=N)N)C(=O)N[C@@H](C)C(=O)N[C@@H](CCC(N)=O)C(=O)N[C@@H](CCC(=O)O)C(=O)N[C@@H](Cc1ccccc1)C(=O)N[C@H](C(=O)N[C@@H](CCCCNC(=O)CC[C@H](NC(=O)CC[C@H](NC(=O)COCCOCCNC(=O)COCCOCCNC(=O)CC[C@H](NC(=O)CCCCCCCCCCCCCCCCC(=O)O)C(=O)O)C(=O)O)C(=O)O)C(=O)N[C@@H](Cc1c[nH]c2ccccc12)C(=O)N[C@@H](CC(C)C)C(=O)N[C@@H](CCC(=O)O)C(=O)N[C@@H](CO)C(=O)N[C@H](C(=O)O)[C@@H](C)O)C(C)C [Example 55, N^ε24-[(4S)-4-carboxy-4-[[(4S)-4-carboxy-4-[[2-[2-[2-[[2-[2-[2-[[(4S)-4-carboxy-4-(17-carboxyheptadecanoylamino)butanoyl]amino]ethoxy]ethoxy]acetyl]amino]ethoxy]ethoxy]acetyl]amino]butanoyl]amino]butanoyl]-[Arg12,Glu15,Glu21,Lys24,Glu27,Ser28]-Glucagon] (H-HSQGTFTSDYSRYLESRRAQEFVK([γGlu-γGlu-AEEA-AEEA-γGlu-C18 diacid])WLEST-OH) | 1.09 nM
CC(C)C[C@H](NC(=O)[C@H](Cc1ccc(O)cc1)NC(=O)[C@H](CCCCN)NC(=O)[C@H](CO)NC(=O)[C@H](Cc1ccc(O)cc1)NC(=O)[C@H](CC(=O)O)NC(=O)[C@H](CO)NC(=O)[C@@H](NC(=O)[C@H](Cc1ccccc1)NC(=O)[C@@H](NC(=O)CNC(=O)[C@H](CCC(N)=O)NC(=O)[C@H](CO)NC(=O)[C@@H](N)Cc1c[nH]cn1)[C@@H](C)O)[C@@H](C)O)C(=O)N[C@@H](CCC(=O)O)C(=O)N[C@@H](CO)C(=O)N[C@@H](CCCNC(=N)N)C(=O)N[C@@H](CCCNC(=N)N)C(=O)N[C@@H](C)C(=O)N[C@@H](CCC(N)=O)C(=O)N[C@@H](CC(=O)O)C(=O)N[C@@H](Cc1ccccc1)C(=O)N[C@H](C(=O)N[C@@H](CCCCNC(=O)CC[C@H](NC(=O)CC[C@H](NC(=O)COCCOCCNC(=O)COCCOCCNC(=O)CC[C@H](NC(=O)CCCCCCCCCCCCCCCCC(=O)O)C(=O)O)C(=O)O)C(=O)O)C(=O)N[C@@H](Cc1c[nH]c2ccccc12)C(=O)N[C@@H](CC(C)C)C(=O)N[C@@H](CCC(=O)O)C(=O)N[C@@H](CO)C(=O)N[C@H](C(=O)O)[C@@H](C)O)C(C)C [Example 59, N^ε24-[(4S)-4-carboxy-4-[[(4S)-4-carboxy-4-[[2-[2-[2-[[2-[2-[2-[[(4S)-4-carboxy-4-(17-carboxyheptadecanoylamino)butanoyl]amino]ethoxy]ethoxy]acetyl]amino]ethoxy]ethoxy]acetyl]amino]butanoyl]amino]butanoyl]-[Glu15,Lys24,Glu27,Ser28]-Glucagon] | 0.682 nM
CC(C)C[C@H](NC(=O)[C@H](Cc1ccc(O)cc1)NC(=O)[C@H](CCCCN)NC(=O)[C@H](CO)NC(=O)[C@H](Cc1ccc(O)cc1)NC(=O)[C@H](CC(=O)O)NC(=O)[C@H](CO)NC(=O)[C@@H](NC(=O)[C@H](Cc1ccccc1)NC(=O)[C@@H](NC(=O)CNC(=O)[C@H](CCC(N)=O)NC(=O)[C@H](CO)NC(=O)[C@@H](N)Cc1c[nH]cn1)[C@@H](C)O)[C@@H](C)O)C(=O)N[C@@H](CCC(=O)O)C(=O)N[C@@H](CO)C(=O)N[C@@H](CCCNC(=N)N)C(=O)N[C@@H](CCCNC(=N)N)C(=O)N[C@@H](C)C(=O)N[C@@H](CCC(N)=O)C(=O)N[C@@H](CC(=O)O)C(=O)N[C@@H](Cc1ccccc1)C(=O)N[C@H](C(=O)N[C@@H](CCCCNC(=O)CC[C@H](NC(=O)CC[C@H](NC(=O)COCCOCCNC(=O)COCCOCCNC(=O)CC[C@H](NC(=O)CCCCCCCCCCCCCCCCC(=O)O)C(=O)O)C(=O)O)C(=O)O)C(=O)N[C@@H](Cc1c[nH]c2ccccc12)C(=O)N[C@@H](CC(C)C)C(=O)N[C@@H](CC(C)C)C(=O)N[C@@H](CCC(N)=O)C(=O)N[C@H](C(=O)O)[C@@H](C)O)C(C)C [Example 60, N^ε24-[(4S)-4-carboxy-4-[[(4S)-4-carboxy-4-[[2-[2-[2-[[2-[2-[2-[[(4S)-4-carboxy-4-(17-carboxyheptadecanoylamino)butanoyl]amino]ethoxy]ethoxy]acetyl]amino]ethoxy]ethoxy]acetyl]amino]butanoyl]amino]butanoyl]-[Glu15,Lys24,Leu27,Gln28]-Glucagon] | 0.517 nM
CC(C)C[C@H](NC(=O)[C@H](Cc1ccc(O)cc1)NC(=O)[C@H](CCCNC(=N)N)NC(=O)[C@H](CO)NC(=O)[C@H](Cc1ccc(O)cc1)NC(=O)[C@H](CC(=O)O)NC(=O)[C@H](CO)NC(=O)[C@@H](NC(=O)[C@H](Cc1ccccc1)NC(=O)[C@@H](NC(=O)CNC(=O)[C@H](CCC(N)=O)NC(=O)[C@H](CO)NC(=O)[C@@H](N)Cc1c[nH]cn1)[C@@H](C)O)[C@@H](C)O)C(=O)N[C@@H](CCC(=O)O)C(=O)N[C@@H](CO)C(=O)N[C@@H](CCCNC(=N)N)C(=O)N[C@@H](CCCNC(=N)N)C(=O)N[C@@H](C)C(=O)N[C@@H](CCC(N)=O)C(=O)N[C@@H](CCC(=O)O)C(=O)N[C@@H](Cc1ccccc1)C(=O)N[C@H](C(=O)N[C@@H](CCCCNC(=O)CC[C@H](NC(=O)CC[C@H](NC(=O)COCCOCCNC(=O)COCCOCCNC(=O)CC[C@H](NC(=O)CCCCCCCCCCCCCCC(=O)O)C(=O)O)C(=O)O)C(=O)O)C(=O)N[C@@H](Cc1c[nH]c2ccccc12)C(=O)N[C@@H](CC(C)C)C(=O)N[C@@H](CC(C)C)C(=O)N[C@@H](CO)C(=O)N[C@H](C(=O)O)[C@@H](C)O)C(C)C [Example 71, N^ε24-[(4S)-4-carboxy-4-[[(4S)-4-carboxy-4-[[2-[2-[2-[[2-[2-[2-[[(4S)-4-carboxy-4-(15-carboxypentadecanoylamino)butanoyl]amino]ethoxy]ethoxy]acetyl]amino]ethoxy]ethoxy]acetyl]amino]butanoyl]amino]butanoyl]-[Arg12,Glu15,Glu21,Lys24,Leu27,Ser28]-Glucagon] (H-HSQGTFTSDYSRYLESRRAQEFVK([γGlu-γGlu-AEEA-AEEA-γGlu-C16 diacid])WLLST-OH) | 0.072 nM
CC(C)C[C@H](NC(=O)[C@H](Cc1ccc(O)cc1)NC(=O)[C@H](CCCNC(=N)N)NC(=O)[C@H](CO)NC(=O)[C@H](Cc1ccc(O)cc1)NC(=O)[C@H](CC(=O)O)NC(=O)[C@H](CO)NC(=O)[C@@H](NC(=O)[C@H](Cc1ccccc1)NC(=O)[C@@H](NC(=O)CNC(=O)[C@H](CCC(N)=O)NC(=O)[C@H](CO)NC(=O)[C@@H](N)Cc1c[nH]cn1)[C@@H](C)O)[C@@H](C)O)C(=O)N[C@@H](CC(=O)O)C(=O)N[C@@H](C)C(=O)N[C@@H](CCCNC(=N)N)C(=O)N[C@@H](CCCNC(=N)N)C(=O)N[C@@H](C)C(=O)N[C@@H](CCC(N)=O)C(=O)N[C@@H](CC(=O)O)C(=O)N[C@@H](Cc1ccccc1)C(=O)N[C@H](C(=O)N[C@@H](CCCCNC(=O)CC[C@H](NC(=O)CC[C@H](NC(=O)CC[C@H](NC(=O)CC[C@H](NC(=O)CCCCCCCCCCCCCCC(=O)O)C(=O)O)C(=O)O)C(=O)O)C(=O)O)C(=O)N[C@@H](Cc1c[nH]c2ccccc12)C(=O)N[C@@H](CC(C)C)C(=O)N[C@@H](CC(C)C)C(=O)N[C@@H](CO)C(=O)N[C@H](C(=O)O)[C@@H](C)O)C(C)C [Example 73, N^ε24-[(4S)-4-carboxy-4-[[(4S)-4-carboxy-4-[[(4S)-4-carboxy-4-[[(4S)-4-carboxy-4-(15-carboxypentadecanoylamino)butanoyl]amino]butanoyl]amino]butanoyl]amino]butanoyl]-[Arg12,Ala16,Lys24,Leu27,Ser28]-Glucagon] (H-HSQGTFTSDYSRYLDARRAQDFVK([γGlu-γGlu-γGlu-γGlu-C16 diacid])WLLST-OH) | 0.106 nM
